Patent publication US20210261512A1, “NOVEL COMPOUNDS” (INFLAZOME LIMITED, priority 2018, published 2021)

Legend:
NLRP3 [1] = target: T1, NLRP3 (Homo sapiens, UniProt Q96P20); test: THP-1 cells pyroptosis assay; type: cell-based; design: Seed THP-1 cells (25,000 cells/well) containing 1.0 μg/ml LPS; host or cells: THP-1; conditions: LPS 1.0 μg/ml, nigericin 5 μM, resazurin readout, 10 μM top dose (Example 2: top dose of 30 μM)
Outline: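 Pyroptosis induced by 5 μM nigericin (1 h) in LPS-primed (1 μg/ml) THP-1 cells, 25,000/well in serum-free RPMI, after 3 h compound pre-treatment (8 points, 10 μM top unless stated). Surviving cells measured with 100 μM resazurin, Ex 560/Em 590; IC50 via variable-slope 4-parameter regression.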

NLRP3 [2] = target: T1, NLRP3; test: Human whole blood IL1β release assay; type: cell-based; conditions: LPS 1 μg/ml, nigericin 10 μM, IL-1β AlphaLisa, 10 μM top dose (Example 2: top dose of 30 μM), read-out: HWB IC50
Outline: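 Healthy-donor heparinised human whole blood with 1 μg/ml LPS, compound (8-point half-log dilution, 10 μM top dose unless stated; 0.1% DMSO vehicle) for 3 h at 37 °C, then nigericin 10 μM final for 1 h. Supernatant IL-1β by AlphaLISA; IC50 from 4-parameter variable-slope fit.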

T1 sequence (Q96P20 whole entry): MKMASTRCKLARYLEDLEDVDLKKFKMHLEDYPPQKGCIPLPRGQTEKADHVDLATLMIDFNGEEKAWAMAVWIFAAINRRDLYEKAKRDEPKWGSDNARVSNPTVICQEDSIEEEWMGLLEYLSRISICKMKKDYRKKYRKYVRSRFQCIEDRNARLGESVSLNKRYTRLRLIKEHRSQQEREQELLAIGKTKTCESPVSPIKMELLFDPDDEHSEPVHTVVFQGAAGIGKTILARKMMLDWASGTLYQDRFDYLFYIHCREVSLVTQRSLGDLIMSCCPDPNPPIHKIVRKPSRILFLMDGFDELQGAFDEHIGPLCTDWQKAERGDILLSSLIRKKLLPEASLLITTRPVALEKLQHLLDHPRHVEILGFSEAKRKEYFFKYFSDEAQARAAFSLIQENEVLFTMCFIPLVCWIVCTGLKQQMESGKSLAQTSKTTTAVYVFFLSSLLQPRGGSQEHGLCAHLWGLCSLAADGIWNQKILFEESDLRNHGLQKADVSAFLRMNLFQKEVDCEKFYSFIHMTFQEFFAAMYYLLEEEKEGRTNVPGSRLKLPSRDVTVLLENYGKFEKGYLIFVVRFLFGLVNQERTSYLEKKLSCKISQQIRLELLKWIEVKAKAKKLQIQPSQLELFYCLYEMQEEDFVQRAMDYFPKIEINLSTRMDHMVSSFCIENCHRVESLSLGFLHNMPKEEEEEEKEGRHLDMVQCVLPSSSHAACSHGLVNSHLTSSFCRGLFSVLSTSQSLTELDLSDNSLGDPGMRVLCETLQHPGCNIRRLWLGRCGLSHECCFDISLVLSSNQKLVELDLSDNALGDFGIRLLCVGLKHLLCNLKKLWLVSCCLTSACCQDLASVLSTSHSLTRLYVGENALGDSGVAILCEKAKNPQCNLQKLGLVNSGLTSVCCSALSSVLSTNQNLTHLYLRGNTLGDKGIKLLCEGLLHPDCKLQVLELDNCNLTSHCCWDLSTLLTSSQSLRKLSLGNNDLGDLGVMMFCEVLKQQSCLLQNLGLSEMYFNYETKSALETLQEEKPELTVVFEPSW

Compound	IC50 (NLRP3 [1]) [nM]	IC50 (NLRP3 [2]) [nM]
COc1cc(-c2cc(F)cc(C(C)C)c2Nc2nnc(S(=O)(=O)N3CC4(CCN(C)C4)C3)[nH]2)ccn1 [Example 248, N-(4-fluoro-2-isopropyl-6-(2-methoxypyridin-4-yl)phenyl)-5-((6-methyl-2,6-diazaspiro[3.4]octan-2-yl)sulfonyl)-4H-1,2,4-triazol-3-amine]	≤ 500	≤ 1000
COc1cc(-c2cc(F)cc(C(C)C)c2Nc2nnc(S(=O)(=O)N3CCC4(CCN4C)CC3)[nH]2)ccn1 [Example 249, N-(4-fluoro-2-isopropyl-6-(2-methoxypyridin-4-yl)phenyl)-5-((1-methyl-1,7-diazaspiro[3.5]nonan-7-yl)sulfonyl)-4H-1,2,4-triazol-3-amine]	≤ 500	≤ 5000
COc1cc(-c2cc(F)cc(C(C)C)c2Oc2nnc(S(=O)(=O)N3CCC4(CCCN4C)CC3)[nH]2)ccn1 [Example 251, 8-((5-(4-fluoro-2-isopropyl-6-(2-methoxypyridin-4-yl)phenoxy)-4H-1,2,4-triazol-3-yl)sulfonyl)-1-methyl-1,8-diazaspiro[4.5]decane]	≤ 500	≤ 5000
O=S(=O)(c1nnc(Nc2c3c(cc4c2CCC4)CCC3)[nH]1)N1CCC2(CCN2C2CC2)CC1 [Example 254, 5-((1-cyclopropyl-1,7-diazaspiro[3.5]nonan-7-yl)sulfonyl)-N-(1,2,3,5,6,7-hexahydro-s-indacen-4-yl)-4H-1,2,4-triazol-3-amine]	≤ 500	≤ 5000
CCN1CCC12CCN(S(=O)(=O)c1nnc(Nc3c4c(cc5c3CCC5)CCC4)[nH]1)CC2 [Example 257, 5-((1-ethyl-1,7-diazaspiro[35]nonan-7-yl)sulfonyl)-N-(1,2,3,5,6,7-hexahydro-s-indacen-4-yl)-4H-1,2,4-triazol-3-amine]	≤ 500	≤ 500
COc1cc(-c2ccc3c(c2Nc2nnc(S(=O)(=O)N4CCC5(CCCN5C)CC4)[nH]2)CCC3)ccn1 [Example 258, N-(5-(2-methoxypyridin-4-yl)-2,3-dihydro-1H-inden-4-yl)-5-((1-methyl-1,8-diazaspiro[4.5]decan-8-yl)sulfonyl)-4H-1,2,4-triazol-3-amine]	≤ 500	≤ 1000
COc1cc(-c2cc(F)cc(C(C)C)c2Nc2nnc(S(=O)(=O)N3CCC4(CCCN4C)CC3)[nH]2)ccn1 [Example 260, N-(4-fluoro-2-isopropyl-6-(2-methoxypyridin-4-yl)phenyl)-5-((1-methyl-1,8-diazaspiro[4.5]decan-8-yl)sulfonyl)-4H-1,2,4-triazol-3-amine]	≤ 500	≤ 5000
COc1cc(-c2cc(F)cc(C(C)C)c2Nc2nnc(S(=O)(=O)N3CCC(N(C)C)CC3)[nH]2)ccn1 [Example 261, 1-((5-((4-fluoro-2-isopropyl-6-(2-methoxypyridin-4-yl)phenyl)amino)-4H-1,2,4-triazol-3-yl)sulfonyl)-N,N-dimethylpiperidin-4-amine]	≤ 500	≤ 1000
CN1CCC2(CC1)CN(S(=O)(=O)c1nnc(Nc3c4c(cc5c3CCC5)CCC4)[nH]1)C2 [Example 275, N-(1,2,3,5,6,7-hexahydro-s-indacen-4-yl)-5-((7-methyl-2,7-diazaspiro[3-5]nonan-2-yl)sulfonyl)-4H-1,2,4-triazol-3-amine]	≤ 5000	≤ 1000
CN1CCC2(CCN(S(=O)(=O)c3nnc(Nc4c5c(cc6c4CCC6)CCC5)[nH]3)C2)C1 (stereo not shown) [Example 277, N-(1,2,3,5,6,7-hexahydro-s-indacen-4-yl)-5-((7-methyl-2,7-diazaspiro[4.4]nonan-2-yl)sulfonyl)-4H-1,2,4-triazol-3-amine]	≤ 500	≤ 1000
CNCC1CN(S(=O)(=O)c2nnc(Nc3c4c(cc5c3CCC5)CCC4)[nH]2)C1 [Example 279, N-(1,2,3,5,6,7-hexahydro-s-indacen-4-yl)-5-((3-((methylamino)methyl)azetidin-1-yl)sulfonyl)-4H-1,2,4-triazol-3-amine]	≤ 500	≤ 500
CN(C)CC1CCN(S(=O)(=O)c2nnc(Oc3c4c(cc5c3CCC5)CCC4)[nH]2)C1 (stereo not shown) [Example 286, 1-(1-((5-((1,2,3,5,6,7-hexahydro-s-indacen-4-yl)oxy)-4H-1,2,4-triazol-3-yl)sulfonyl)pyrrolidin-3-yl)-N,N-dimethylmethanamine]	≤ 5000	≤ 10000
CNC[C@H]1CCN(S(=O)(=O)c2nnc(Nc3c4c(cc5c3CCC5)CCC4)[nH]2)C1 [Example 288, (R)—N-(1,2,3,5,6,7-hexahydro-s-indacen-4-yl)-5-((3-((methylamino)methyl)pyrrolidin-1-yl)sulfonyl)-4H-1,2,4-triazol-3-amine]	≤ 500	≤ 1000
CC(C)(O)C1CCN(S(=O)(=O)c2nnc(Nc3c4c(cc5c3CCC5)CCC4)[nH]2)C1 (stereo not shown) [Example 289, 2-(1-((5-((1,2,3,5,6,7-hexahydro-s-indacen-4-yl)amino)-4H-1,2,4-triazol-3-yl)sulfonyl)pyrrolidin-3-yl)propan-2-ol]	≤ 1000	≤ 5000
CC(CNS(=O)(=O)c1nnc(Nc2c3c(cc4c2CCC4)CCC3)[nH]1)N(C)C (stereo not shown) [Example 290, N-(2-(dimethylamino)propyl)-5-((1,2,3,5,6,7-hexahydro-s-indacen-4-yl)amino)-4H-1,2,4-triazole-3-sulfonamide]	≤ 5000	≤ 5000
CN(C)CC1CN(S(=O)(=O)c2nnc(Nc3c4c(cc5c3CCC5)CCC4)[nH]2)C1 [Example 291, 5-((3-((dimethylamino)methyl)azetidin-1-yl)sulfonyl)-N-(1,2,3,5,6,7-hexahydro-s-indacen-4-yl)-4H-1,2,4-triazol-3-amine]	≤ 500	≤ 500
CC1(O)CCN(S(=O)(=O)c2nnc(Nc3c4c(cc5c3CCC5)CCC4)[nH]2)CC1 [Example 292, 1-((5-((1,2,3,5,6,7-hexahydro-s-indacen-4-yl)amino)-4H-1,2,4-triazol-3-yl)sulfonyl)-4-methylpiperidin-4-ol]	≤ 5000	≤ 5000
CC(C)(O)C1CCN(S(=O)(=O)c2nnc(Nc3c4c(cc5c3CCC5)CCC4)[nH]2)CC1 [Example 293, 2-(1-((5-((1,2,3,5,6,7-hexahydro-s-indacen-4-yl)amino)-4H-1,2,4-triazol-3-yl)sulfonyl)piperidin-4-yl)propan-2-ol]	≤ 500	≤ 10000
CN1CCCNC(=O)C12CCN(S(=O)(=O)c1nnc(Nc3c4c(cc5c3CCC5)CCC4)[nH]1)CC2 [Example 294, 3-((5-((1,2,3,5,6,7-hexahydro-s-indacen-4-yl)amino)-4H-1,2,4-triazol-3-yl)sulfonyl)-7-methyl-3,7,11-triazaspiro[5.6]dodecan-12-one]	≤ 500	≤ 5000
CN1CCOC2(C1)CN(S(=O)(=O)c1nnc(Nc3c4c(cc5c3CCC5)CCC4)[nH]1)C2 [Example 295, N-(1,2,3,5,6,7-hexahydro-s-indacen-4-yl)-5-((8-methyl-5-oxa-2,8-diazaspiro[3-5]nonan-2-yl)sulfonyl)-4H-1,2,4-triazol-3-amine]	≤ 500	≤ 1000
COc1cc(-c2cc(F)cc(C3CC3)c2Nc2nnc(S(=O)(=O)N3CCC(N(C)C)CC3)[nH]2)ccn1 [Example 301, 1-((5-((2-cyclopropyl-4-fluoro-6-(2-methoxypyridin-4-yl)phenyl)amino)-1H-1,2,4-triazol-3-yl)sulfonyl)-N,N-dimethylpiperidin-4-amine]	≤ 500	≤ 5000
CN(C)CC1CCN(S(=O)(=O)c2nnc(Nc3c4c(cc5c3CCC5)CCC4)[nH]2)CC1 [Example 304, 5-((4-((dimethylamino)methyl)piperidin-1-yl)sulfonyl)-N-(1,2,3,5,6,7-hexahydro-s-indacen-4-yl)-4H-1,2,4-triazol-3-amine]	≤ 500	≤ 1000
CN(C)CC1CCCN(S(=O)(=O)c2nnc(Nc3c4c(cc5c3CCC5)CCC4)[nH]2)C1 (stereo not shown) [Example 305, 5-((3-((dimethylamino)methyl)piperidin-1-yl)sulfonyl)-N-(1,2,3,5,6,7-hexahydro-s-indacen-4-yl)-4H-1,2,4-triazol-3-amine]	≤ 5000	≤ 5000
O=S(=O)(c1nnc(Nc2c3c(cc4c2CCC4)CCC3)[nH]1)N1CC[C@H](CN2CCCC2)C1 [Example 306, (R)—N-(1,2,3,5,6,7-hexahydro-s-indacen-4-yl)-5-((3-(pyrrolidin-1-ylmethyl)pyrrolidin-1-yl)sulfonyl)-4H-1,2,4-triazol-3-amine]	≤ 1000	≤ 1000
O=S(=O)(c1nnc(Nc2c3c(cc4c2CCC4)CCC3)[nH]1)N1CC[C@H](CNC2CC2)C1 [Example 307, (R)-5-((3-((cyclopropylamino)methyl)pyrrolidin-1-yl)sulfonyl)-N-(1,2,3,5,6,7-hexahydro-s-indacen-4-yl)-4H-1,2,4-triazol-3-amine]	≤ 1000	≤ 10000
CCNC[C@H]1CCN(S(=O)(=O)c2nnc(Nc3c4c(cc5c3CCC5)CCC4)[nH]2)C1 [Example 308, (R)-5-((3-((ethylamino)methyl)pyrrolidin-1-yl)sulfonyl)-N-(1,2,3,5,6,7-hexahydro-s-indacen-4-yl)-4H-1,2,4-triazol-3-amine]	≤ 500	≤ 5000
